According to ChEMBL document CHEMBL2321853, “Novel acylethanolamide derivatives that modulate body weight through enhancement of hypothalamic pro-opiomelanocortin (POMC) and/or decreased neuropeptide Y (NPY)” (J Med Chem, 2013):
Active and inactive are the calls of the source. No cut-off for these calls is given here.

Tests used:
[1] = test system: Mus musculus; experiment: Antiobesity activity in Sabra mouse assessed as reduction in body weight at 1 mg/kg, ip administered on day 0, 10, 11, 12, 24, 29 measured on day 39 relative to control; format: functional; set-up: scale not given: the % may be the effect or the level left; conditions: route intraperitoneal
[2] = test system: Mus musculus; experiment: Antiobesity activity in Sabra mouse assessed as reduction in body weight at 1 mg/kg, ip administered on day 0, 10, 11, 12, 24, 29 measured on day 33 relative to control; format: functional; set-up: scale not given: the % may be the effect or the level left; conditions: route intraperitoneal
[3] = test system: Mus musculus; experiment: Antiobesity activity in Sabra mouse assessed as reduction in body weight at 1 mg/kg, ip administered on day 0, 10, 11, 12, 24, 29 measured on day 26 relative to control; format: functional; set-up: scale not given: the % may be the effect or the level left; conditions: route intraperitoneal
[4] = test system: Mus musculus; experiment: Antiobesity activity in Sabra mouse assessed as reduction in body weight at 1 mg/kg, ip administered on day 0, 10, 11, 12, 24, 29 measured on day 24 relative to control; format: functional; set-up: scale not given: the % may be the effect or the level left; conditions: route intraperitoneal
[5] = test system: Mus musculus; experiment: Antiobesity activity in C57BL/6 mouse assessed as change in AST level at 5 mg/kg, ip measured on day 36 (reference value: 146.7 IU/L); format: functional; conditions: route intraperitoneal
[6] = test system: Mus musculus; experiment: Antiobesity activity in C57BL/6 mouse assessed as change in glucose level in blood at 5 mg/kg, ip administered on day 1, 4, 5, 7, 17, 15, 19 measured on day 11 relative to control; format: functional; conditions: route intraperitoneal
[7] = test system: Mus musculus; experiment: Antiobesity activity in C57BL/6 mouse assessed as change in glucose level in blood at 5 mg/kg, ip administered on day 1, 4, 5, 7, 17, 15, 19 measured on day 9 relative to control; format: functional; conditions: route intraperitoneal
[8] = test system: Mus musculus; experiment: Antiobesity activity in C57BL/6 mouse assessed as change in glucose level in blood at 5 mg/kg, ip administered on day 1, 4, 5, 7, 17, 15, 19 measured on day 5 relative to control; format: functional; conditions: route intraperitoneal
[9] = test system: Mus musculus; experiment: Antiobesity activity in C57BL/6 mouse assessed as weight loss at 5 mg/kg, ip administered on day 1, 4, 5, 7, 17, 15, 19 measured on day 11 relative to control; format: functional; conditions: route intraperitoneal
[10] = test system: Mus musculus; experiment: Antiobesity activity in C57BL/6 mouse assessed as weight loss at 5 mg/kg, ip administered on day 1, 4, 5, 7, 17, 15, 19 measured on day 5 relative to control; format: functional; conditions: route intraperitoneal
[11] = test system: Mus musculus; experiment: Antiobesity activity in Sabra mouse assessed as change in body weight at 1 mg/kg, ip administered on day 8, 12 and 43 measured on day 43 relative to control; format: functional; conditions: route intraperitoneal
[12] = test system: Mus musculus; experiment: Antiobesity activity in Sabra mouse assessed as change in body weight at 1 mg/kg, ip administered on day 8, 12 and 43 measured on day 12 relative to control; format: functional; conditions: route intraperitoneal
[13] = test system: Mus musculus; experiment: Antiobesity activity in Sabra mouse assessed as change in body weight at 1 mg/kg, ip administered on day 8, 12 and 43 measured on day 8 relative to control; format: functional; conditions: route intraperitoneal
[14] = test system: Mus musculus; experiment: Hepatotoxicity in Sabra mouse assessed as coagulative necrosis changes at 1 mg/kg, ip administered on day 8, 9, 10, 11, 14, 18, 24 and 32 by hematoxylin and eosin staining-based histopathological analysis; format: toxicity, organism-based; set-up: dose 1 mg/kg, route intraperitoneal; conditions: in vivo
[15] = test system: Mus musculus; experiment: Hepatotoxicity in Sabra mouse assessed as inflammatory changes at 1 mg/kg, ip administered on day 8, 9, 10, 11, 14, 18, 24 and 32 by hematoxylin and eosin staining-based histopathological analysis; format: toxicity, organism-based; set-up: dose 1 mg/kg, route intraperitoneal; conditions: in vivo
[16] = test system: Mus musculus; experiment: Toxicity in Sabra mouse assessed as morphological changes in neuronal cells at 1 mg/kg, ip administered on day 8, 9, 10, 11, 14, 18, 24 and 32 by hematoxylin and eosin staining-based histopathological analysis; format: organism-based; set-up: dose 1 mg/kg, route intraperitoneal; conditions: in vivo
[17] = test system: Mus musculus; experiment: Enhancement of cognitive function C57BL/6 mouse assessed as reduction food consumption at 1 mg/kg, ip administered on day 3, 6, 8, 9, 10 measured on day 10; format: functional, organism-based; set-up: dose 1 mg/kg
[18] = test system: Hypothalamus; experiment: Effect on POMC gene expression in Sabra mouse hypothalamus assessed as increase in mRNA level at 1 mg/kg, ip administered on day 6 to 10 measured on day 16 by RT-PCR analysis relative to control; format: functional; conditions: route intraperitoneal
[19] = test system: Mus musculus; experiment: Enhancement of cognitive function in Sabra mouse at 10 mg/kg, ip administered on day 6 to 10 by eight-arm maze test relative to control; format: functional, organism-based; set-up: dose 10 mg/kg
[20] = test system: Mus musculus; experiment: Antiobesity activity in Sabra mouse assessed as reduction in body weight at 1 mg/kg, ip administered on day 6 to 10 measured on day 16 relative to control; format: functional; set-up: scale not given: the % may be the effect or the level left; conditions: route intraperitoneal
[21] = test system: Mus musculus; experiment: Enhancement of cognitive function in Sabra mouse at 1 mg/kg, ip measured on day 8 to 12 by eight-arm maze test; format: functional, organism-based; set-up: dose 1 mg/kg
[22] = test system: Hypothalamus; experiment: Effect on FAAH gene expression in Sabra mouse hypothalamus assessed as change in mRNA level at 1 mg/kg, ip administered on day 8, 9, 10, 11, 14, 18, 24 and 32 by RT-PCR analysis relative to GAPDH; format: functional; conditions: route intraperitoneal
[23] = test system: Hypothalamus; experiment: Effect on CART gene expression in Sabra mouse hypothalamus assessed as change in mRNA level at 1 mg/kg, ip administered on day 8, 9, 10, 11, 14, 18, 24 and 32 by RT-PCR analysis relative to GAPDH; format: functional; conditions: route intraperitoneal
[24] = biological target: Transient receptor potential cation channel subfamily V member 1 (Rattus norvegicus) (UniProt O35433); experiment: Displacement of [3H]resiniferatoxin from TRPV1 receptor in Wistar rat spinal cord at 10 uM relative to control
Chain of Transient receptor potential cation channel subfamily V member 1 (Rattus norvegicus) (O35433 whole entry): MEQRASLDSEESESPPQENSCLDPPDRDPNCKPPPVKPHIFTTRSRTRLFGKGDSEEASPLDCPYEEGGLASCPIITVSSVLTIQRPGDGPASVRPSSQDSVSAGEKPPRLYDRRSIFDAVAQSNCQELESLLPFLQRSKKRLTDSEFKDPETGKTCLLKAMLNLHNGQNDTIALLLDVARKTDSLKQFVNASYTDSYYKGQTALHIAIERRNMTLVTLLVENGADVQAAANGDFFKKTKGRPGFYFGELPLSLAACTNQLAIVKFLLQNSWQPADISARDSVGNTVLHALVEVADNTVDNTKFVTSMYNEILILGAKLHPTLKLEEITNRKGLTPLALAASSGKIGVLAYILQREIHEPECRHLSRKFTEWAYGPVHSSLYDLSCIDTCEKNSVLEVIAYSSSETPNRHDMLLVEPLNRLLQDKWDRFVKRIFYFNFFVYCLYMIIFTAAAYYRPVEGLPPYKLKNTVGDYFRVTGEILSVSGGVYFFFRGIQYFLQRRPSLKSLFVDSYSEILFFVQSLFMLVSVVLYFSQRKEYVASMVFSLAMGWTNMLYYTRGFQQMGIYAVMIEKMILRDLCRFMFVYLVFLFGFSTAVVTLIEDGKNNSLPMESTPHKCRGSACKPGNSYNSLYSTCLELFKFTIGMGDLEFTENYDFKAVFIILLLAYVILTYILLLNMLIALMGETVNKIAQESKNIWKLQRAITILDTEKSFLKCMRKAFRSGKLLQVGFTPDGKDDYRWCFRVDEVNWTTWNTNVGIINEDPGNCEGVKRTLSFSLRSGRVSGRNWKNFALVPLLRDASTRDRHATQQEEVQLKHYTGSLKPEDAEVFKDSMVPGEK

[25] = biological target: Cannabinoid receptor 2 (Homo sapiens) (UniProt P34972); experiment: Displacement of [3H]WIN-55,212-2 from human recombinant CB2 receptor expressed in CHO-K1 cells at 10 uM relative to control; format: cell-based
Chain of Cannabinoid receptor 2 (Homo sapiens) (P34972 whole entry): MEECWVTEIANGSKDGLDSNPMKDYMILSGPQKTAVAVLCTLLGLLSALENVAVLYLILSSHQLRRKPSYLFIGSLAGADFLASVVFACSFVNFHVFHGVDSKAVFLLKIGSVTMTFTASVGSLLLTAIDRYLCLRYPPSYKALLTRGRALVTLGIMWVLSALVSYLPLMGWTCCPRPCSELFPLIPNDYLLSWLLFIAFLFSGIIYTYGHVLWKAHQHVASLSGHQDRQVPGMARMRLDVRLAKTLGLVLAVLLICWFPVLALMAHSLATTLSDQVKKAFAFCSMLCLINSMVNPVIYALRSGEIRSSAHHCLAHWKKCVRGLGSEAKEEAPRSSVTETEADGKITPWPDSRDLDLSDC

[26] = test system: Mus musculus; experiment: Antiobesity activity in high fat diet fed C57BL/6 mouse assessed as reduction in body weight at 1 mg/kg, ip administered on day 3, 6, 8, 9, 10 measured on day 9 relative to control; format: functional; set-up: scale not given: the % may be the effect or the level left; conditions: route intraperitoneal
[27] = test system: Mus musculus; experiment: Antiobesity activity in Sabra mouse assessed as change in food consumption at 1 mg/kg, ip administered on day 8, 9, 10, 11, 14, 18, 24 and 32 measured after 6 weeks relative to control; format: functional; conditions: route intraperitoneal
[28] = test system: Mus musculus; experiment: Antiobesity activity in Sabra mouse assessed as change in food consumption at 1 mg/kg, ip administered on day 8, 9, 10, 11, 14, 18, 24 and 32 measured after 5 weeks relative to control; format: functional; conditions: route intraperitoneal
[29] = test system: Mus musculus; experiment: Antiobesity activity in Sabra mouse assessed as change in food consumption at 1 mg/kg, ip administered on day 8, 9, 10, 11, 14, 18, 24 and 32 measured after 3 weeks relative to control; format: functional; conditions: route intraperitoneal
[30] = test system: Mus musculus; experiment: Antiobesity activity in Sabra mouse assessed as change in body weight at 1 mg/kg, ip administered on day 8, 9, 10, 11, 14, 18, 24 and 32 measured on day 39 relative to control; format: functional; conditions: route intraperitoneal
[31] = test system: Mus musculus; experiment: Antiobesity activity in Sabra mouse assessed as change in body weight at 1 mg/kg, ip administered on day 8, 9, 10, 11, 14, 18, 24 and 32 measured on day 25 relative to control; format: functional; conditions: route intraperitoneal
[32] = test system: Mus musculus; experiment: Antiobesity activity in Sabra mouse assessed as change in food consumption at 1 mg/kg, ip administered on day 8, 9, 10, 11, 14, 18, 24 and 32 measured after 2 weeks relative to control; format: functional; conditions: route intraperitoneal

CCCCCCCC/C=C\CCCCCCCC(=O)N[C@H](CO)C(C)C
Activity [1]: -7.31%
Activity [2]: -4%
Activity [3]: -4.05%
Activity [4]: -4.24%
Activity [5]: 126 IU/L
Activity [6]: -17.3%
Activity [7]: -11.8%
Activity [8]: -5.7%
Activity [9]: -3.2%
Activity [10]: -3.2%
Activity [11]: -7.5%
Activity [12]: -2.2%
Activity [13]: 0.7%
Activity [14]: Non-toxic
Activity [15]: Non-toxic
Activity [16]: Non-toxic
Activity [17]: Active
Activity [18]: 50%
Activity [19]: inactive
Activity [20]: 4.6%
Activity [21]: Active
Activity [22]: -33%
Activity [23]: 15%
inhibition [24]: 1%
inhibition [25]: 18%
Activity [26]: -3.1%
Activity [27]: 83.6%
Activity [28]: 85.9%
Activity [29]: 91.2%
Activity [30]: -6.4%
Activity [31]: -5%
Activity [32]: 93.8%
